Patent publication US10179128B2, “Regimens for treating and preventing lysosomal disorders and degenerative disorders of the central nervous system” (Amicus Therapeutics, Inc., priority 2015, dated 2019)
Numbering of substitutions follows the chain as printed. Structures can show the parent of a compound that is named as a salt.

How the values were obtained:
[1] = Blood-brain barrier penetration in rats, single 100 mg/kg FBE p.o.; assay type: in vivo; conditions: rat, brain and plasma, po, exposure in nM-hr, read-out: total brain exposure as % of plasma exposure
[2] = Blood-brain barrier penetration in mice, oral 30 mg/kg FBE; assay type: in vivo; conditions: for Kp / Cmax: mouse, oral, 30 mg/kg; for Kp: brain and plasma, read-out: Barin/Plasma Cmax (%); for Cmax: plasma
From the text: The ability of a drug to penetrate the blood-brain barrier can be an important function. Without the capability of penetrating into the brain, the drug will not likely have a therapeutic effect in tissues in the brain.

N370S mice = test: Example 6: daily oral dosing of IFG tartrate in N370S mice; assay type: in vivo
Procedure: (§1) The purpose of this study was to first confirm that the GlcSph substrate was elevated in N370S and L444P mutant mouse models.
(§2) Both compounds were administered daily via an oral route.

pKa = assay type: physicochemical
[3] = Bioavailability (plasma as percent oral dose); assay type: in vivo
GCase = target: T1, GCase (Mus musculus, UniProt P17439); test: ED50 in brain; assay type: in vivo
T1 construct: from tissue; host or cells: brain
T1 sequence (P17439 20-515): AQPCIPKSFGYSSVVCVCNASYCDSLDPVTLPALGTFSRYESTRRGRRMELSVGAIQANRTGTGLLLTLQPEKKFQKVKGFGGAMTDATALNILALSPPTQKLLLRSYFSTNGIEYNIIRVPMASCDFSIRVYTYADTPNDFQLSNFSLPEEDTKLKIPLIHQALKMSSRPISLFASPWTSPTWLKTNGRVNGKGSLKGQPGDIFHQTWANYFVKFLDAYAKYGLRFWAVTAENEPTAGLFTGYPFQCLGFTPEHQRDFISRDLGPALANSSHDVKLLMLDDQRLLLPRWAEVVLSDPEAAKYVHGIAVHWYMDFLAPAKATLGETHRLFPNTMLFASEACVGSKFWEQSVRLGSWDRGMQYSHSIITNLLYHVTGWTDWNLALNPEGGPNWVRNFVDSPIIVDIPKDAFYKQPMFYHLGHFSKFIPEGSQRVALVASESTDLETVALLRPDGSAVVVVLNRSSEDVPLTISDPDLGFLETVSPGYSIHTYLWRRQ

[4] = Brain tissue washout / efflux half-life; assay type: in vivo
From the text: To evaluate the potential therapeutic effect of a chaperone, the washout period can be examined to determine the length of time required to washout the inhibitor. Otherwise, enzyme that is successfully trafficked to the lysosome may not have optimal functionality because the chaperone, which also functions as a competitive inhibitor, can continue to compete with the substrate for the enzyme active site.

[5] = target: T2, recombinant human GCase (rhGCase) (Homo sapiens, UniProt P04062); test: In vitro thermal stability assay of rhGCase (SYPRO Orange fluorescence); assay type: binding; conditions: 100 μM compound, neutral pH; enzyme alone approximately 53° C.
T2 sequence (P04062 40-536): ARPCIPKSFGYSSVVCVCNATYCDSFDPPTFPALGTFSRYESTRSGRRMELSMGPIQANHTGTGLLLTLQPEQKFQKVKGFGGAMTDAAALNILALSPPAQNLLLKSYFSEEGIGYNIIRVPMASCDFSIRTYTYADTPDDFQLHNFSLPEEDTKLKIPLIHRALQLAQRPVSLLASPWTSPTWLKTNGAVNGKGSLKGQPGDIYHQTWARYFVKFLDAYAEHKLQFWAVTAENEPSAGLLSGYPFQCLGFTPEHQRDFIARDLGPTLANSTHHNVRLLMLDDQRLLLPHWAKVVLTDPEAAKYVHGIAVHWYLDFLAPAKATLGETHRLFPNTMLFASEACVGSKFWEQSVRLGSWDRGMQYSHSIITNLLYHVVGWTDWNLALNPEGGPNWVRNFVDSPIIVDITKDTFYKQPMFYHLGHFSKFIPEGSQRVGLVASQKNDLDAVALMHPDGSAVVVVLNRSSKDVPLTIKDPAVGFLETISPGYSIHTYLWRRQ
From the text: A dye (SYPRO® Orange) that fluoresces when it binds to hydrophobic regions of enzyme was used to assess stability, because unstable enzyme that loses its native conformation likely exposes internal hydrophobic amino acids, leading to an increase in fluorescence.

GCase N370S = target: T3, GCase N370S (Homo sapiens, UniProt P04062, N409S); test: cell-based
T3 sequence (P04062 40-536 N409S): T2 sequence (P04062 40-536) with N370S

rhGCase = target: T4, rhGCase (Homo sapiens, UniProt P04062); conditions: rats
T4 sequence (P04062 40-536): T2 sequence (P04062 40-536)

L444P mice [6] = test: Comparison of Examples 6-8 in L444P mice; assay type: in vivo
From the text: Changes in brain, liver, and spleen GCase activity were compared across the studies of Examples 6-8. In FIGS. 20 and 21, C1 denotes the study from Example 6, C2 denotes the study from Example 7, and C3 denotes the study from Example 8.

L444P mice [7] = test: Example 7: daily dosing of Compound 3 in L444P mice over four weeks, fixed and ascending doses in drinking water; assay type: in vivo
Procedure: Both fixed and ascending dosing schemes were used and were administered in drinking water. Four fixed dose groups, 0.01 mg/kg FBE, 0.1 mg/kg FBE, 1 mg/kg FBE, and 10 mg/kg FBE were used. A fifth group, which used an ascending dose, was also included, and it began at 0.01 mg/kg FBE and increased by 10-fold each week, with a dose during the final week of 10 mg/kg FBE.

L444P mice [8] = test: Example 8: additional dosing regimens of Compound 3 in L444P mice; assay type: in vivo
Procedure: The purpose of this study was to improve dosing choices based on data collected from Example 7. Specific tissues of L444P mice that were measured were the liver, brain, spleen, bone, marrow, and plasma. […] In Example 8, two dosing strategies were used, fixed dose and constant weekly dose. All doses were administered orally in drinking water. Fixed dose mice were given 1 mg/kg FBE either daily, two days a week, or three days a week. Constant weekly dose mice were given a total of 7 mg/kg FBE per week, either three days a week (Monday, Wednesday, Friday), two days a week (Monday, Thursday), or daily. For example, mice receiving 3 doses per week (Monday, Wednesday, Friday) would receive 2.33 mg/kg FBE in each dose, while mice receiving doses twice a week (Monday, Thursday) would receive 3.5 mg/kg FBE per dose.

L444P mice [9] = test: Example 6: daily oral dosing of Compound 3 in L444P mice; assay type: in vivo
Procedure: as §1, §2

[10] = mice, oral 30 mg/kg FBE, brain tissue
[11] = all dose groups, Day 1 and Day 30 after 24-hour washout
[12] = ascending 0.01-10 mg/kg FBE dose

In the case of `OC[C@H]1CNC[C@@H](O)[C@@H]1O` [IFG tartrate, isofagomine tartrate], the Kp [1] is reported as 0.29, the “crossing of the blood-brain barrier” value ([2]; mice) is reported as “capable of crossing the blood-brain barrier” and the “peak compound concentration in brain” value ([2]; mice, oral 30 mg/kg FBE, brain tissue, value in nM) is reported as 30 nM. The “GlcSph in liver versus control” value (N370S mice; 100 mg/kg FBE daily oral) was “reduction in GlcSph substrate”, the “GlcSph in spleen versus control” value (N370S mice; 100 mg/kg FBE daily oral) was “significant reduction of GlcSph” and the “reduction in bone GlcSph concentration” value (N370S mice; bone) was 31%. The “reduction of GlcSph in marrow” value (N370S mice; marrow) was 45%.
With `OC[C@H]1CNC[C@@H](O)[C@@H]1O` [Isofagomine, isofagomine, reference compound] the pKa (pKa) was 8.4, the bioavailability [3] was 53% and the “Brain Cmax at 30 mg/kg” value [2, 10] was 0.3 µM. The Kp [2] was 0.0165, the Cmax [2] was 17.5 µM and the ED50 (GCase) was 56.4 mg/kg. The “Brain tissue efflux (half-life)” value [4] was 2.9 h and the half-life [4] was ~3 h.
For `Cl.O[C@H]1[C@H](O)CNC[C@@H]1C(F)F` [Compound 2], the “crossing of the blood-brain barrier” value ([2]; mice) was “capable of crossing the blood-brain barrier” and the “Brain Cmax at 30 mg/kg” value [2, 10] was 9.7 µM.
With `O[C@H]1[C@H](O)CNC[C@@H]1C(F)F` [Compound 1] the pKa (pKa) was 7.1, the “temperature of peak fluorescence (unfolding)” value [5] was 65 °C and the bioavailability [3] was 106%. The “Brain Cmax at 30 mg/kg” value [2, 10] was 9.7 µM, the Kp [2] was 0.115 and the Cmax [2] was 84.5 µM. It also gave an ED50 (GCase) of 5.2 mg/kg, a half-life [4] of ~1.4 h and an Emax (GCase N370S) of 106%. The “normalized GCase activity in plasma versus rhGCase alone” value (rhGCase; 3 mg/kg oral gavage 30 minutes before IV rhGCase) was “sustained a higher normalized GCase activity in plasma longer” and the “rhGCase western blot band versus no chaperone” value (rhGCase; 3 mg/kg, 5 minute and 10 minute intervals) was “a more intense protein band”.
With `O=C(O)/C=C/C(=O)O.O[C@H]1[C@H](O)CNC[C@@H]1C(F)F` [Compound 3] the Kp [1] was 0.85, the “brain GCase activity” value (L444P mice [6]; 0-10 mg/kg FBE ascending dose, studies of Examples 6 and 7) was “increased” and the “brain GCase activity” value (L444P mice [6]; 1 mg/kg FBE dose, Example 7 and Example 8) was “increased”. The “liver GCase activity” value (L444P mice [6]; 1 mg/kg FBE dosing regimens, Example 7 and Example 8) was “elevated”, the “brain GlcSph level versus vehicle” value (L444P mice [6]; 10 mg/kg FBE) was “increased level of GlcSph over the vehicle” and the “brain GlcSph level versus vehicle” value (L444P mice [6]; ascending dose (0-10 mg/kg FBE)) was “increased level of GlcSph over the vehicle”. The “GlcSph substrate level change in the spleen” value (L444P mice [6]; ascending dose (0-10 mg/kg FBE) and 1 mg/kg FBE dose, Examples 6-8) was “significant”, the “liver GCase activity” value (L444P mice [6]; ascending dose, Example 6 and Example 7) was “higher GCase activity” and the “GCase activity in brain, liver and spleen versus vehicle” value (L444P mice [7]; 0.01 mg/kg FBE and 0.1 mg/kg FBE) was “did not show significant differences”. The “brain GlcSph versus vehicle” value (L444P mice [7]; 1 mg/kg FBE) was “increase in GlcSph”, the “liver GlcSph versus vehicle” value (L444P mice [7]; 1 mg/kg FBE) was “decrease in GlcSph” and the “spleen GlcSph versus vehicle” value (L444P mice [7]; 1 mg/kg FBE) was “decrease in GlcSph”. For the same molecule, the “increase in brain GCase activity versus vehicle” value (L444P mice [7]; 1 mg/kg FBE daily) was “almost a two-fold increase”, the “increase in liver GCase activity versus vehicle” value (L444P mice [7]; 1 mg/kg FBE daily) was 5 fold and the “increase in spleen GCase activity versus vehicle” value (L444P mice [7]; 1 mg/kg FBE daily) was “two-fold increase”. The “brain GlcCer concentration versus vehicle” value (L444P mice [7]; 1 mg/kg FBE, after 30 days) was “No significant difference”, the “plasma GlcCer versus vehicle” value (L444P mice [7]; [11]) was “no significant increases or decreases” and the “plasma GlcSph versus vehicle” value (L444P mice [7]; [11]) was “no significant increases or decreases”. The “liver GlcCer concentration versus vehicle” value (L444P mice [7]; all dose groups, after 30 days) was “No significant differences”, the “brain GlcSph concentration versus vehicle” value (L444P mice [7]; [12]) was “increase in substrate concentration” and the “increase in brain GCase activity versus vehicle” value (L444P mice [7]; [12]) was “about three-fold”. The “increase in liver GCase activity versus vehicle” value (L444P mice [7]; [12]) was “about 8 fold”, the “increase in spleen GCase activity versus vehicle” value (L444P mice [7]; [12]) was “about 4 fold” and the “spleen GlcSph concentration versus vehicle” value (L444P mice [7]; [12]) was “reduction in concentration”. The “brain GlcCer concentration versus vehicle” value (L444P mice [7]; ascending dose, after 30 days) was “increased”, the “brain GCase activity versus vehicle” value (L444P mice [8]; 1 mg/kg FBE daily dose) was “increased and was significant” and the “liver GlcSph concentration versus vehicle” value (L444P mice [8]; 1 mg/kg FBE daily dose) was “significant reduction”. For the same molecule, the “spleen GlcSph concentration versus vehicle” value (L444P mice [8]; 1 mg/kg FBE daily dose) was “significant reduction”, the “plasma concentration of GlcCer” value (L444P mice [8]; across all doses) was “no significant differences” and the “enhancement of GCase activity in liver” value (L444P mice [9]; 10 mg/kg FBE daily) was 7.6 fold. For the same molecule, the “GlcSph in spleen versus control” value (L444P mice [9]; 10 mg/kg FBE daily oral) was “significant reduction of GlcSph” and the “enhancement of GCase activity in brain” value (L444P mice [9]; 10 mg/kg FBE daily, almost equivalent to wild-type activity) was 2.8 fold.
